Results from BindingDB's records for doi:10.1021/jm3015052.

Legend:
[1] = target: Acetylcholinesterase (Homo sapiens, UniProt P22303); test: Inhibition of AChE (unknown origin)
[2] = target: T1, Diacylglycerol O-acyltransferase 1 (Homo sapiens, UniProt O75907); test: Inhibition of DGAT1 (unknown origin)
T1 sequence (O75907 whole entry): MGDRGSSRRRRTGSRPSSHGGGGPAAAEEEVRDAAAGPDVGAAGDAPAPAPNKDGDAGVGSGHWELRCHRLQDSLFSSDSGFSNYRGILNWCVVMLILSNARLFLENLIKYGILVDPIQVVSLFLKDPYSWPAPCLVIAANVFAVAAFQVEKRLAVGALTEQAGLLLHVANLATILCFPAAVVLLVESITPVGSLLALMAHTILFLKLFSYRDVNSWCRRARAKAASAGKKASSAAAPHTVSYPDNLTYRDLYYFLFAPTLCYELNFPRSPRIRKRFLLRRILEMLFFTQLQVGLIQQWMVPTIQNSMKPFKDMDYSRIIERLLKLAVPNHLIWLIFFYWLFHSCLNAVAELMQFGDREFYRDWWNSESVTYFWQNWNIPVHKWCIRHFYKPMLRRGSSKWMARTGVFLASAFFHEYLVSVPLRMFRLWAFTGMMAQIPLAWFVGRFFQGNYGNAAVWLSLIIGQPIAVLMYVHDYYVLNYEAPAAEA

[3] = target: T2, Tyrosine-protein phosphatase non-receptor type 1 (Homo sapiens, UniProt P18031); test: Inhibition of PTP1B (unknown origin)
T2 sequence (P18031 whole entry): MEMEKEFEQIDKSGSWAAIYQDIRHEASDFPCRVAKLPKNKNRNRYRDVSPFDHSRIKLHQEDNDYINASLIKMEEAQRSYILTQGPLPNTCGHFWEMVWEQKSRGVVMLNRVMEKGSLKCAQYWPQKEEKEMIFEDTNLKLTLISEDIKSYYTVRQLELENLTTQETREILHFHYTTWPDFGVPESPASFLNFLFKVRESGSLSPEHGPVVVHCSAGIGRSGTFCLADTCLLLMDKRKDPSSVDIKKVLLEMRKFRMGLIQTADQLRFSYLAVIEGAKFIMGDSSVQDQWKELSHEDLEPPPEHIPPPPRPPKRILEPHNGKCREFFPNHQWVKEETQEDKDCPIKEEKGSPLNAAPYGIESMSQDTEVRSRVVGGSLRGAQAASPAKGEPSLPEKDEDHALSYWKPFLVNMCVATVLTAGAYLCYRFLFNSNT

Chain of Acetylcholinesterase (P22303 whole entry): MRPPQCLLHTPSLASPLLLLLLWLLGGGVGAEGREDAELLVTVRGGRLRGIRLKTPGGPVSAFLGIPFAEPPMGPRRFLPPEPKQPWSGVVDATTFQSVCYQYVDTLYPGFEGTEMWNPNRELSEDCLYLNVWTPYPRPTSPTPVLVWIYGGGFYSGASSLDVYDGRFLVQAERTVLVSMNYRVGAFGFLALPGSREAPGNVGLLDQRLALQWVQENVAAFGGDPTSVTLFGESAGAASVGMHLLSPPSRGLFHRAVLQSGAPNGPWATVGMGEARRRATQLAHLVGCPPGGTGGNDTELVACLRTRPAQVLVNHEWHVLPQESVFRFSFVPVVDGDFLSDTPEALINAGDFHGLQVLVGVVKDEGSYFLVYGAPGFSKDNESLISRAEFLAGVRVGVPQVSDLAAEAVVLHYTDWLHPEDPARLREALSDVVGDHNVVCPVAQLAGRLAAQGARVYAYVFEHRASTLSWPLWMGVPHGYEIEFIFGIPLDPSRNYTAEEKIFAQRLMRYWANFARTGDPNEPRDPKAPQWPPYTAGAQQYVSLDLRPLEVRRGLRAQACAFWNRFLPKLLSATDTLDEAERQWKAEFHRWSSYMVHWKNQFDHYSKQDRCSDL

Row | SMILES | IC50 [1] [µM] | IC50 [2] [µM] | IC50 [3] [µM]
1 | COc1ccc(/C=C2\Oc3cc(OCCN4CCCCC4)ccc3C2=O)cc1 | 0.845 | – | –
2 | CCOc1ccc2c(c1)O/C(=C\c1ccc(OCCN3CCCCC3)cc1)C2=O | 0.045 | – | –
3 | COc1cc(/C=C2\Oc3cc(OCCN4CCCCC4)ccc3C2=O)cc(OC)c1OC | 0.422 | – | –
4 | COc1ccc2c(c1)O/C(=C\c1ccc(OCCN3CCCCC3)c(Cl)c1)C2=O | 0.16 | – | –
5 | CC(C)=CCc1c(O)ccc2c1O/C(=C\c1ccc(O)cc1)C2=O | – | 35.2 | 11.3
6 | O=C1/C(=C/c2ccc(OCCN3CCCCC3)cc2)Oc2ccccc21 | 0.348 | – | –
7 | O=C1/C(=C/c2ccc(OCCN3CCCC3)cc2)Oc2ccccc21 | 0.545 | – | –
8 | COc1cc(/C=C2\Oc3cc(OCCN4CCCC4)ccc3C2=O)cc(OC)c1OC | 0.643 | – | –
